Reference: US7423181B2, “Aminoalkoxy-functional chalcones” (Lica Pharmaceuticals A/S, priority 2002, dated 2008)
≈ marks a conversion by molar mass, not a printed value. Like-named read-outs stand apart in the source and are kept apart here.

How the values were obtained:
[1] = system: Plasmodium falciparum 3D7; assay: Plasmodium falciparum assay; type: cell-based; settings: Plasmodium falciparum 3D7 (Table 2); read-out: IC50
[2] = system: L. major promastigotes; assay: Leishmania promastigote assay; settings: L. major
[3] = system: Enterococcus faecium #17501 (vancomycin-resistant clinical isolate); assay: MIC determination in broth microdilution assay
[4] = system: Staphylococcus aureus ATCC33591(resistant to methicillin); assay: MIC determination in broth microdilution assay
[5] = system: Eschericia coli ATCC25922; assay: MIC determination in broth microdilution assay; settings: for MIC: G: Eschericia coli ATCC25922
[6] = system: Eschericia coli ESS; assay: MIC determination in broth microdilution assay
[7] = system: Enterococcus faecalis ATCC29212; assay: MIC determination in broth microdilution assay
[8] = system: Staphylococcus aureus ATCC29213; assay: MIC determination in broth microdilution assay
[9] = system: Streptococcus pneumoniae #998 (clinical isolate); assay: MIC determination in broth microdilution assay
[10] = Determination of metabolic stability (liver microsomes); type: in vitro ADME; settings: rat liver microsomes, 20 μM, 15 min
Procedure: Determination of Metabolic Stability
Incubations were performed with Wistar rat liver microsomes (0.25 mg/ml) in 2% sodium bicarbonate solution. NADP (0.13 mg/ml), glucose-6-phosphate (0.63 mg/ml) and glucose-6-phosphate dehydrogenase (0.38 units/ml) were used as NADPH generation system and UDPGA (0.48 mg/ml) was added to include the phase II reaction, glucuronic acid conjugation, in the assay. After 5 minutes of pre-incubation the reaction was started by addition of the test article to give a final concentration of 20 μM. Samples were incubated for 15 min at 37° C. and the reactions were terminated by addition of equal volumes of acetonitrile. Blank incubations were performed at the same concentration but without addition of microsomes. Both blank and microsome-containing samples were made in replicats of three. Prior to analysis samples were centrifuged for 10 min. at 3500 rpm,HPLC system:
Initial conditions were 40% mobile phase A (acetonitrile) and 60% mobile phase B (10 mM ammonium acetate pH 9.5). During the first 20 minutes, the mobile phase was changed via a linear gradient to 90% A and 10% B. This was followed by a 5 minutes linear gradient to initial conditions, which were maintained for 5 min. The flow rate was 0.20 m)/min and injection volume 10 μl.

[11] = system: panel of 10 different non-fastidious bacteria; assay: Screening against panel of non-fastidious bacteria; settings: Gram-positive pathogens
[12] = E: Enterococcus faecium #17501 (vancomycin-resistant)
[13] = B: Staphylococcus aureus ATCC33591(resistant to methicillin)
[14] = D: Enterococcus faecalis ATCC29212
[15] = A: Staphylococcus aureus ATCC29213
[16] = F: Streptococcus pneumoniae #998

`Cc1ccccc1-c1ccc(OCCN(C)C)c(/C=C/C(=O)c2ccccc2CN2CCN(C)CC2)c1` [Compound C032, (E)-3-[4-(2-Dimethylamino-ethoxy)-2′-methyl-biphenyl-3-yl]-1-[2-(4-methyl-piperazin-1-ylmethyl)-phenyl]-propenone] showed an IC50 [1] of 0.5 µM and an IC50 [2] of 0.7 µM.

Work on `Cc1cc(C)cc(-c2ccc(OCCN(C)C)c(/C=C/C(=O)c3ccc(OCCN(C)C)cc3F)c2)c1` [Compound C157, (E)-3-[4-(2-Dimethylamino-ethoxy)-3′,5′-dimethyl-biphenyl-3-yl]-1-[4-(2-dimethylamino-ethoxy)-2-fluoro-phenyl]-propenone] yielded an MIC [3, 12] of 9.4 µM (≈ 4.74 µg/mL), an MIC [4, 13] of 9.4 µM (≈ 4.74 µg/mL) and an MIC [5] of 18.8 µM (≈ 9.49 µg/mL). It also gave an MIC ([6]; H: Eschericia coli ESS) of 4.7 µM (≈ 2.37 µg/mL), an MIC [7, 14] of 9.4 µM (≈ 4.74 µg/mL) and an MIC [8, 15] of 4.7 µM (≈ 2.37 µg/mL). For the same compound, the MIC [9, 16] was 9.4 µM (≈ 4.74 µg/mL).

With `COc1ccc(C(=O)/C=C/c2cc(-c3ccccc3)ccc2OCCN(C)C)c(F)c1` [Compound C011, (E)-3-[4-(2-Dimethylamino-ethoxy)-biphenyl-3-yl]-1-(2-fluoro-4-methoxy-phenyl)-propenone] the IC50 [2] was 0.1 µM.

Work on `Cc1cc(C)cc(-c2ccc(OCCN(C)C)c(/C=C/C(=O)c3ccc(O)c(F)c3)c2)c1` [Compound C140, (E)-3-[4-(2-Dimethylamino-ethoxy)-3′,5′-dimethyl-biphenyl-3-yl]-1-(3-fluoro-4-hydroxy-phenyl)-propenone] yielded an IC50 [2] of 0.2 µM.

With `CCCc1cc(/C=C/C(=O)c2ccc(OC)cc2F)c(OCCN(C)C)cc1O` [Compound C039, (E)-3-[2-(2-Dimethylamino-ethoxy)-4-hydroxy-5-propyl-phenyl]-1-(2-fluoro-4-methoxy-phenyl)-propenone] the MIC [3, 12] was 18.8 µM (≈ 7.55 µg/mL), the MIC [4, 13] was 18.8 µM (≈ 7.55 µg/mL) and the MIC [5] was 75.0 µM (≈ 30.1 µg/mL). For the same compound, the MIC ([6]; H: Eschericia coli ESS) was 9.4 µM (≈ 3.77 µg/mL), the MIC [7, 14] was 18.8 µM (≈ 7.55 µg/mL) and the MIC [8, 15] was 9.4 µM (≈ 3.77 µg/mL). It also gave an MIC [9, 16] of 18.8 µM (≈ 7.55 µg/mL).

For `Cc1cc(C)cc(-c2ccc(OCCN(C)C)c(/C=C/C(=O)c3ccccc3OCCCN(C)C)c2)c1` [Compound C104, (E)-3-[4-(2-Dimethylamino-ethoxy)-3′,5′-dimethyl-biphenyl-3-yl]-1-[2-(3-dimethylamino-propoxy)-phenyl]-propenone], the MIC [3, 12] was 9.4 µM (≈ 4.71 µg/mL), the MIC [4, 13] was 18.8 µM (≈ 9.41 µg/mL) and the MIC [5] was 18.8 µM (≈ 9.41 µg/mL). The MIC ([6]; H: Eschericia coli ESS) was 9.4 µM (≈ 4.71 µg/mL), the MIC [7, 14] was 9.4 µM (≈ 4.71 µg/mL) and the MIC [8, 15] was 9.4 µM (≈ 4.71 µg/mL). It also gave an MIC [9, 16] of 9.4 µM (≈ 4.71 µg/mL).

With `CN(C)CCCOc1cccc(/C=C/C(=O)c2ccccc2CN(C)C)c1` [Compound C071, (E)-1-(2-Dimethylaminomethyl-phenyl)-3-[3-(3-dimethylamino-propoxy)-phenyl]-propenone] the “Metabolic turn-over in vitro” value [10] was 3%.

For `COc1ccc(C(=O)/C=C/c2cc(-c3cc(C)cc(C)c3)ccc2OCCN(C)C)c(CN(C)C)c1` [Compound C092, (E)-3-[4-(2-Dimethylamino-ethoxy)-3′,5′-dimethyl-biphenyl-3-yl]-1-(2-dimethylaminomethyl-4-methoxy-phenyl)-propenone], the MIC [3, 12] was 4.7 µM (≈ 2.29 µg/mL), the “Metabolic turn-over in vitro” value [10] was 4% and the MIC [4, 13] was 9.4 µM (≈ 4.57 µg/mL). It also gave an MIC [5] of 75 µM (≈ 36.5 µg/mL), an MIC ([6]; H: Eschericia coli ESS) of 4.7 µM (≈ 2.29 µg/mL) and an MIC [7, 14] of 4.7 µM (≈ 2.29 µg/mL). The MIC [8, 15] was 4.7 µM (≈ 2.29 µg/mL) and the MIC [9, 16] was 4.7 µM (≈ 2.29 µg/mL).

Compound `Cc1cc(C)cc(-c2ccc(OCCN(C)C)c(CCC(=O)c3ccc(F)cc3)c2)c1` [Compound C072, 3-[4-(2-Dimethylamino-ethoxy)-3′,5′-dimethyl-biphenyl-3-yl]-1-(4-fluoro-phenyl)-propan-1-one] has an MIC ([3]; Enterococcus faecium) of 18.8 µM (≈ 7.89 µg/mL), an MIC ([4]; Staphylococcus aureus, ATCC33591) of 18.8 µM (≈ 7.89 µg/mL) and an MIC [6] of 9.4 µM (≈ 3.94 µg/mL). It also gave an MIC ([7]; Enterococcus faecalis, ATCC29212) of 18.8 µM (≈ 7.89 µg/mL), an MIC ([8]; Staphylococcus aureus, ATCC29213) of 9.4 µM (≈ 3.94 µg/mL) and an MIC ([9]; Streptococcus pneumoniae) of 37.5 µM (≈ 15.7 µg/mL).

With `COc1ccc(C(=O)/C=C/c2cc(-c3cc(C)cc(C)c3)ccc2OCCN(C)C)cc1CN(C)C` [Compound C090, (E)-3-[4-(2-Dimethylamino-ethoxy)-3′,5′-dimethyl-biphenyl-3-yl]-1-(3-dimethylaminomethyl-4-methoxy-phenyl)-propenone] the IC50 [1] was 0.5 µM.

`Cc1cc(C)cc(-c2ccc(OCCN(C)C)c(/C=C/C(=O)c3ccccc3N)c2)c1` [Compound C093, (E)-1-(2-Amino-phenyl)-3-[4-(2-dimethylamino-ethoxy)-3′,5′-dimethyl-biphenyl-3-yl]-propenone] showed an MIC [3, 12] of 4.7 µM (≈ 1.95 µg/mL), an MIC [4, 13] of 4.7 µM (≈ 1.95 µg/mL) and an MIC ([6]; H: Eschericia coli ESS) of 4.7 µM (≈ 1.95 µg/mL). For the same compound, the MIC [7, 14] was 9.4 µM (≈ 3.9 µg/mL), the MIC [8, 15] was 4.7 µM (≈ 1.95 µg/mL) and the MIC [9, 16] was 18.8 µM (≈ 7.79 µg/mL).

`COc1ccc(C(=O)/C=C/c2cc(C(C)(C)C)ccc2OCCN(C)C)c(F)c1` [Compound C004, (E)-3-[5-tert-Butyl-2-(2-dimethylamino-ethoxy)-phenyl]-1-(2-fluoro-4-methoxy-phenyl)-propenone] gave an MIC [3, 12] of 18.8 µM (≈ 7.51 µg/mL), an MIC [4, 13] of 9.4 µM (≈ 3.76 µg/mL) and an MIC [5] of 75.0 µM (≈ 30 µg/mL). For the same compound, the MIC ([6]; H: Eschericia coli ESS) was 9.4 µM (≈ 3.76 µg/mL), the MIC [7, 14] was 18.8 µM (≈ 7.51 µg/mL) and the MIC [8, 15] was 9.4 µM (≈ 3.76 µg/mL). The “potency against Gram-positive pathogens in comparison with Licochalcone A” value [11] was “increased potency” and the MIC [9, 16] was 18.8 µM (≈ 7.51 µg/mL).

With `Cc1cc(C)cc(-c2ccc(OCCN(C)C)c(/C=C/C(=O)c3cccc(CN(C)C)c3)c2)c1` [Compound C089, (E)-3-[4-(2-Dimethylamino-ethoxy)-3′,5′-dimethyl-biphenyl-3-yl]-1-(3-dimethylaminomethyl-phenyl)-propenone] the MIC [3, 12] was 9.4 µM (≈ 4.29 µg/mL), the “Metabolic turn-over in vitro” value [10] was 9% and the MIC [4, 13] was 9.4 µM (≈ 4.29 µg/mL). It also gave an MIC [5] of 37.5 µM (≈ 17.1 µg/mL), an MIC ([6]; H: Eschericia coli ESS) of 4.7 µM (≈ 2.15 µg/mL) and an MIC [7, 14] of 9.4 µM (≈ 4.29 µg/mL). It also gave an MIC [8, 15] of 9.4 µM (≈ 4.29 µg/mL) and an MIC [9, 16] of 9.7 µM (≈ 4.43 µg/mL).

With `Cc1cc(C)cc(-c2ccc(OCCN(C)C)c(/C=C/C(=O)c3ccccc3OC(C)C)c2)c1` [Compound C067, (E)-3-[4-(2-Dimethylamino-ethoxy)-3′,5′-dimethyl-biphenyl-3-yl]-1(2-isopropoxy-phenyl)-propenone] the MIC [3, 12] was 4.7 µM (≈ 2.15 µg/mL), the MIC [4, 13] was 4.7 µM (≈ 2.15 µg/mL) and the MIC ([6]; H: Eschericia coli ESS) was 18.8 µM (≈ 8.6 µg/mL). The MIC [7, 14] was 4.7 µM (≈ 2.15 µg/mL), the MIC [8, 15] was 4.7 µM (≈ 2.15 µg/mL) and the MIC [9, 16] was 18.8 µM (≈ 8.6 µg/mL).

In the case of `Cc1cc(C)cc(-c2ccc(OCCN(C)C)c(/C=C/C(=O)c3ccc(O)cc3F)c2)c1` [Compound C156, (E)-3-[4-(2-Dimethylamino-ethoxy)-3′,5′-dimethyl-biphenyl-3-yl]-1-(2-fluoro-4-hydroxy-phenyl)-propenone], the IC50 [1] is reported as 0.1 µM.

With `Cc1cc(C)cc(-c2ccc(OCCN(C)C)c(/C=C/C(=O)c3cccc(O)c3)c2)c1` [Compound C085, (E)-3-[4-(2-Dimethylamino-ethoxy)-3′,5′-dimethyl-biphenyl-3-yl]-1-(3-hydroxy-phenyl)-propenone] the MIC [3, 12] was 4.7 µM (≈ 1.95 µg/mL), the MIC [4, 13] was 4.7 µM (≈ 1.95 µg/mL) and the MIC ([6]; H: Eschericia coli ESS) was 4.7 µM (≈ 1.95 µg/mL). It also gave an MIC [7, 14] of 4.7 µM (≈ 1.95 µg/mL), an MIC [8, 15] of 4.7 µM (≈ 1.95 µg/mL) and an MIC [9, 16] of 75 µM (≈ 31.2 µg/mL).

In the case of `Cc1cc(C)cc(-c2ccc(OCCN(C)C)c(/C=C/C(=O)c3cccc(N4CCN(C)CC4)c3)c2)c1` [Compound C103, (E)-3-[4-(2-Dimethylamino-ethoxy)-3′,5′-dimethyl-biphenyl-3-yl]-1-[3-(4-methyl-piperazin-1-yl)-phenyl]-propenone], the MIC [3, 12] is reported as 9.4 µM (≈ 4.68 µg/mL), the MIC [4, 13] is reported as 4.7 µM (≈ 2.34 µg/mL) and the “activity against E coli ATCC25922” value [5] is reported as “high activity”. For the same compound, the MIC [5] was 18.8 µM (≈ 9.36 µg/mL), the “activity against ESS strain of E.coli” value [6] was “high activity” and the MIC ([6]; H: Eschericia coli ESS) was 4.7 µM (≈ 2.34 µg/mL). It also gave an MIC [7, 14] of 9.4 µM (≈ 4.68 µg/mL) and an MIC [8, 15] of 4.7 µM (≈ 2.34 µg/mL).

Compound `CN(C)CCOc1ccc(-c2ccccc2O)cc1/C=C/C(=O)c1ccccc1CN(C)C` [Compound C131, (E)-3-[4-(2-Dimethylamino-ethoxy)-2′-hydroxy-biphenyl-3-yl]-1-(2-dimethylaminomethyl-phenyl)-propenone] has an IC50 [1] of 0.3 µM.
